Assay [1] has as its system Pseudomonas aeruginosa 66 and C43. In words: MIC, microdilution broth, P. aeruginosa. Type of assay: cell-based. The source says: (§1) Escherichia coli JM83 is an antibiotic-sensitive laboratory strain. E. coli JM83 (APH(3′)-I) contains high copies (500–700 copies per cell) of plasmid pUC19 with the cloned kanamycin resistance gene from transposon Tn903 that produces the type I aminoglycoside 3′-phosphotransferase. APH(3′)-I is the most common aminoglycoside phosphotransferase in gram-negative bacteria. E. coli JM83 (AAC6′/APH2″) contains a plasmid with the gene for the bifunctional aminoglycoside-modifying enzyme AAC(6′)/APH(2″), which is produced by many cocci. The enzyme is able to phosphorylate at the 2″ position and/or acetylate at the 6′ position of various aminoglycoside antibiotics to manifest resistance for the organisms that express it. Serratia marcescens ATCC 13880, Enterobacter cloacae ATCC 3047, Pseudomonas aeruginosa 66 and C43 are representative important gram-negative pathogens. Aminoglycosides by themselves or in combination with other antibiotics are often used to combat these microorganisms, especially P. aeruginosa that is often very difficult to treat. Staphylococcus aureus 3 and Enterococcus faecium 119 are representatives of the cocci. Most of these microorganisms are intrinsically resistant to aminoglycosides (poor permeability), but in combination with β-lactam antibiotics are often used to treat infections caused by these microorganisms.
(§2) The MICs of all antibiotics, including the compounds of the present invention (i.e., the compounds of formula (I)), were determined by microdilution method broth procedure. Sequential twofold dilutions of antibiotics were performed in 100 μL of Luria-Bertani (LB) broth in sterile 96-well microtiter plates. Overnight cultures of bacteria were diluted 100 times in LB broth and subgrown for several hours and 10 μL of diluted cultures were transferred into the antibiotic containing microtiter plates to bring final inoculums to 10^5 CFU/mL (CFU stands for the colony forming units). Cultures were incubated overnight at 35° C. and microtiter plates were checked from below with a reflective viewer.

Another assay relates to Staphylococcus aureus 3. In words: MIC, microdilution broth, S. aureus. In kind it is cell-based. The settings on record: S. aureus 3.
Source text: as §1, §2

For assay [2], the system named is Enterobacter cloacae ATCC 3047. The assay is described as follows: MIC, microdilution broth, E. cloacae. In kind it is cell-based.
Source text: as §1, §2
Background: In broth dilution the organism is exposed to a series of concentrations in liquid medium.

For a further assay, the system named is F-AS. The assay is described as follows: Binding to A-site rRNA template. The settings on record: specific assay conditions; compared with compound 4 for F-AS.
Assay [3] has as its system Serratia marcescens ATCC 13880. In words: MIC, microdilution broth, S. marcescens. Type of assay: cell-based.
Source text: as §1, §2

Another assay concerns E. coli JM83 (APH(3′)-I). The assay is described as follows: MIC, microdilution broth, E. coli hyper-expressing APH(3′)-I. Type of assay: cell-based, Escherichia coli. The following applies: for antibiotic activity / fold lower activity than tobramycin and amikacin: E. coli hyper-expressing APH(3′)-I.
Source text: as §1, §2

In the next assay the test system is Enterococcus faecium 119. In words: MIC, microdilution broth, E. faecium. In kind it is cell-based. The settings on record: E. faecium 119, moderately resistant to aminoglycosides.
Source text: as §1, with “Most of these microorganisms are intrinsically resistant to aminoglycosides (poor permeability), but in combination with β-lactam antibiotics are often used to treat infections caused by these microorganisms.” left out
(§3) The MICs of all antibiotics, including the compounds of the present invention (i.e., the compounds of formula (I)), were determined by microdilution method broth procedure. […]

Assay [4] concerns E. coli JM83 (AAC6′/APH2″). The assay is described as follows: MIC, microdilution broth, E. coli hyper-expressing AAC(6′)/APH(2″). Type of assay: cell-based, Escherichia coli. The following applies: for antibiotic activity: E. coli hyper-expressing AAC(6′)/APH(2″).
Source text: as §1, §2

The subject of assay [5] is any of the microorganisms tested. In words: MIC, microdilution broth, whole panel of bacterial strains. Type of assay: cell-based. The settings on record: whole spectrum of strains.
Source text: as §1, with “Most of these microorganisms are intrinsically resistant to aminoglycosides (poor permeability), but in combination with β-lactam antibiotics are often used to treat infections caused by these microorganisms.” left out
as §3

The test system of a further assay is Escherichia coli JM83. In words: MIC, microdilution broth, E. coli JM83. Type of assay: cell-based. The settings on record: E. coli JM83, antibiotic-sensitive laboratory strain.
Source text: as §1, with “Most of these microorganisms are intrinsically resistant to aminoglycosides (poor permeability), but in combination with β-lactam antibiotics are often used to treat infections caused by these microorganisms.” left out
as §3

The MIC is the least concentration at which growth counts as inhibited.

As to `NCCCCNCCOC1C(NC(=O)[C@@H](O)CCN)CC(N)C(O[C@H]2O[C@H](CN)[C@@H](O)[C@H](O)[C@H]2N)C1O` (stereo partly drawn) [Compound 5, 1-N-[(S)-4-Amino-2-hydroxybutanoyl]-6-O-[2-N-(4-butylamino)ethylamino]neamine], the “antibiotic activity” value is recorded as “excellent activities” in [1]; “good activities” in the assay with Staphylococcus aureus 3; “excellent activities” in [2]; “excellent activities” in assay [3]; “good activity” in the assay with E. coli JM83 (APH(3′)-I); “good activities” in the assay on Enterococcus faecium 119. In addition, the “antibiotic activity” value in assay [4] is listed as “good activity”. Also, in the assay with F-AS, the “binding to RNA” value is recorded as “comparable binding affinity”. For the same compound, in the assay with E. coli JM83 (APH(3′)-I), the “fold lower activity than tobramycin and amikacin” value stood at 8 fold.

Regarding `NCCCCNCCOC1C(NC(=O)Cc2cccc(N)c2)CC(N)C(O[C@H]2O[C@H](CN)[C@@H](O)[C@H](O)[C@H]2N)C1O` (stereo partly shown) [Compound 9, 1-N-[3-Aminophenylethanoyl]-6-O-[2-N-(4-butylamino)ethylamino]neamine], the “binding to RNA” value in the assay on F-AS is recorded as “do bind to the RNA”.

As for `NCCCCNCCOC1C(NC(=O)Cc2ccc(N)cc2)CC(N)C(O[C@H]2O[C@H](CN)[C@@H](O)[C@H](O)[C@H]2N)C1O` (stereo partly shown) [Compound 8, 1-N-[4-Aminophenylethanoyl]-6-O-[2-N-(4-butylamino)ethylamino]neamine], the “binding to RNA” value in the assay with F-AS is “do bind to the RNA”.

`NCCCNCCOC1C(NC(=O)[C@@H](O)CCN)CC(N)C(O[C@H]2O[C@H](CN)[C@@H](O)[C@H](O)[C@H]2N)C1O` (stereo partly drawn) [Compound 4, 1-N-[(S)-4-Amino-2-hydroxybutanoyl]-6-O-[2-N-(3-propylamino)ethylamino]neamine]: the “antibiotic activity” value was “excellent activities” in [1]; “good activities” in the assay on Staphylococcus aureus 3; “excellent activities” in assay [2]; “excellent activities” in assay [3]; “good activity” in the assay on E. coli JM83 (APH(3′)-I); “good activities” with Enterococcus faecium 119. The “antibiotic activity” value in assay [4] is given as “good activity”. The “fold lower activity than tobramycin and amikacin” value in the assay on E. coli JM83 (APH(3′)-I) came out at 8 fold.

With `NCCNCCOC1C(NC(=O)[C@@H](O)CCN)CC(N)C(O[C@H]2O[C@H](CN)[C@@H](O)[C@H](O)[C@H]2N)C1O` (stereo partly drawn) [Compound 3, 1-N-[(S)-4-Amino-2-hydroxybutanoyl]-6-O-[2-N-(2-ethylamino)ethylamino]neamine], the “MIC values relative to compounds 4 and 5” value in [5] was “approximately four-fold higher”.

Regarding `NCCCN(CCOC1C(NC(=O)[C@@H](O)CCN)CC(N)C(O[C@H]2O[C@H](CN)[C@@H](O)[C@H](O)[C@H]2N)C1O)C(=O)[C@@H](O)CCN` (stereo partly drawn) [Compound 7, 1-N,6-O-(2-N)-Bis[(S)-4-amino-2-hydroxybutanoyl]-6-O-[2-N-(3-propylamino)ethylamino]neamine], the “antibiotic activity” value (in assay [1]; in [2]; in assay [3]; in the assay on E. coli JM83 (APH(3′)-I); in assay [4]) was “moderate activity” each time. The values for the MIC (in the assay with E. coli JM83 (APH(3′)-I) (E. coli strain producing APH(3′)-I); in [4] (E. coli strain producing AAC(6′)/APH(2″))) were 64 µg/mL and 32 µg/mL, respectively.

In the case of “6-O-[2-N-(3-Propylamino)ethylamino]neamine [Compound 6]”, the “antibiotic activity” value in the assay with Staphylococcus aureus 3 is “demonstrates activity”; in the assay with Escherichia coli JM83, “demonstrates activity”; in [2] it was “demonstrates activity”; in [3], “demonstrates activity”; in the assay on E. coli JM83 (APH(3′)-I), “not active”; in assay [4], “not active”. For the same compound, in [5], the “overall antibiotic activity” value is “lower activity than compound 3”.

The values are drawn from US7220727B2, “Aminoglycosides as antibiotics” (priority 2000, dated 2007).
